In article PMC5218480 (PLoS ONE, 2017):

Test system: MV-4-11 cells
Test: Gene expression microarray analysis (Affymetrix PrimeView) and GSEA
Format: cell-based, human
Set-up: RFU PODN (11730768_x_at) / Fold change /veh PODN (11730768_x_at) / RFU LINC00158 (11744669_a_at) / Fold change /veh LINC00158 (11744669_a_at) / RFU DUSP10 (11751237_a_at) / Fold change /veh DUSP10 (11751237_a_at) / RFU ID3 (11757404_x_at) / Fold change /veh ID3 (11757404_x_at) / RFU PLEKHG5 (11737974_s_at) / Fold change /veh PLEKHG5 (11737974_s_at) / RFU LRRC4B (11730491_at) / Fold change /veh LRRC4B (11730491_at) / RFU GIMAP4 (11747438_a_at) / Fold change /veh GIMAP4 (11747438_a_at) / RFU KRT8 (11758183_x_at) / Fold change /veh KRT8 (11758183_x_at) / RFU CNN1 (11734310_a_at) / Fold change /veh CNN1 (11734310_a_at) / RFU VPS37D (11726825_at) / Fold change /veh VPS37D (11726825_at) / RFU C10orf10 (11716522_x_at) / Fold change /veh C10orf10 (11716522_x_at) / RFU KIR2DL2 /// KIR2DL4 /// KIR2DL5A /// KIR2DL5B /// KIR2DS1 /// KIR2DS2 /// KIR2DS3 /// KIR2DS4 /// KIR3DL3 /// KIR3DL3 /// KIR3DS1 (11738374_at) / Fold change /veh KIR2DL2 /// KIR2DL4 /// KIR2DL5A /// KIR2DL5B /// KIR2DS1 /// KIR2DS2 /// KIR2DS3 /// KIR2DS4 /// KIR3DL3 /// KIR3DL3 /// KIR3DS1 (11738374_at) / RFU C1QL1 (11718748_at) / Fold change /veh C1QL1 (11718748_at) / RFU TMPRSS4 (11747572_a_at) / Fold change /veh TMPRSS4 (11747572_a_at) / RFU HAMP (11756126_x_at) / Fold change /veh HAMP (11756126_x_at) / RFU RNFT2 (11725882_a_at) / Fold change /veh RNFT2 (11725882_a_at) / RFU NR4A2 (11747474_a_at) / Fold change /veh NR4A2 (11747474_a_at) / RFU ABCC12 (11746883_a_at) / Fold change /veh ABCC12 (11746883_a_at) / RFU TMEM136 (11760407_x_at) / Fold change /veh TMEM136 (11760407_x_at) / RFU CLDN22 /// WWC2 (11732394_at) / Fold change /veh CLDN22 /// WWC2 (11732394_at) / RFU HLA-DPB1 (11760878_x_at) / Fold change /veh HLA-DPB1 (11760878_x_at) / RFU SPINT1 (11716480_a_at) / Fold change /veh SPINT1 (11716480_a_at) / RFU GAP43 (11754022_s_at) / Fold change /veh GAP43 (11754022_s_at) / RFU A4GNT (11735810_at) / Fold change /veh A4GNT (11735810_at) / RFU PRB3 (11715151_x_at) / Fold change /veh PRB3 (11715151_x_at) / RFU TUBB4B (11761932_at) / Fold change /veh TUBB4B (11761932_at) / RFU CAPN14 (11732068_a_at) / Fold change /veh CAPN14 (11732068_a_at) / RFU TMCC2 (11721928_a_at) / Fold change /veh TMCC2 (11721928_a_at) / RFU IRGQ (11745062_a_at) / Fold change /veh IRGQ (11745062_a_at) / RFU FAM174B (11720279_a_at) / Fold change /veh FAM174B (11720279_a_at) / RFU TMPRSS4 (11748680_a_at) / Fold change /veh TMPRSS4 (11748680_a_at) / RFU FAM212B (11763350_a_at) / Fold change /veh FAM212B (11763350_a_at) / RFU PLEKHG5 (11743358_a_at) / Fold change /veh PLEKHG5 (11743358_a_at) / RFU ZSCAN30 (11745921_a_at) / Fold change /veh ZSCAN30 (11745921_a_at) / RFU CMKLR1 (11741424_a_at) / Fold change /veh CMKLR1 (11741424_a_at) / RFU LOC101060620 /// MAPK8IP1 (11723275_at) / Fold change /veh LOC101060620 /// MAPK8IP1 (11723275_at) / RFU SPTSSB (11747773_x_at) / Fold change /veh SPTSSB (11747773_x_at) / RFU PRSS12 (11739890_at) / Fold change /veh PRSS12 (11739890_at) / RFU BIN1 (11741810_x_at) / Fold change /veh BIN1 (11741810_x_at) / RFU WNT11 (11732464_a_at) / Fold change /veh WNT11 (11732464_a_at) / RFU C10orf10 (11716521_a_at) / Fold change /veh C10orf10 (11716521_a_at) / RFU C5orf56 (11738089_at) / Fold change /veh C5orf56 (11738089_at) / RFU CYB561 (11721691_x_at) / Fold change /veh CYB561 (11721691_x_at) / RFU ANKRD19P (11752326_a_at) / Fold change /veh ANKRD19P (11752326_a_at) / RFU OR2T12 /// OR2T33 /// OR2T8 (11738714_s_at) / Fold change /veh OR2T12 /// OR2T33 /// OR2T8 (11738714_s_at) / RFU VCAN (11748164_a_at) / Fold change /veh VCAN (11748164_a_at) / RFU JSRP1 (11732532_at) / Fold change /veh JSRP1 (11732532_at) / RFU KRTAP10-11 (11738290_x_at) / Fold change /veh KRTAP10-11 (11738290_x_at) / RFU MYO3A (11730013_a_at) / Fold change /veh MYO3A (11730013_a_at) / RFU EBF3 (11725865_a_at) / Fold change /veh EBF3 (11725865_a_at) / RFU CAMK2N1 (11719241_x_at) / Fold change /veh CAMK2N1 (11719241_x_at) / RFU C5orf56 (11738088_a_at) / Fold change /veh C5orf56 (11738088_a_at) / RFU OLFML3 (11715873_a_at) / Fold change /veh OLFML3 (11715873_a_at) / RFU LOC100653217 /// NTM (11731650_a_at) / Fold change /veh LOC100653217 /// NTM (11731650_a_at) / RFU MAPK11 (11762145_a_at) / Fold change /veh MAPK11 (11762145_a_at) / RFU FIZ1 (11724087_x_at) / Fold change /veh FIZ1 (11724087_x_at) / RFU OASL (11726364_x_at) / Fold change /veh OASL (11726364_x_at) / RFU SOX15 (11748057_x_at) / Fold change /veh SOX15 (11748057_x_at) / RFU CD79A (11719716_a_at) / Fold change /veh CD79A (11719716_a_at) / RFU HIST1H1D (11736915_at) / Fold change /veh HIST1H1D (11736915_at) / RFU CASKIN2 (11723855_a_at) / Fold change /veh CASKIN2 (11723855_a_at) / RFU LOC730098 (11760151_x_at) / Fold change /veh LOC730098 (11760151_x_at) / RFU OR4N2 (11742367_at) / Fold change /veh OR4N2 (11742367_at) / RFU PRRT2 (11749266_a_at) / Fold change /veh PRRT2 (11749266_a_at) / RFU SNX32 (11753110_a_at) / Fold change /veh SNX32 (11753110_a_at) / RFU CDHR5 (11726645_a_at) / Fold change /veh CDHR5 (11726645_a_at) / RFU RCAN1 (11760418_a_at) / Fold change /veh RCAN1 (11760418_a_at) / RFU FAM167A (11723789_a_at) / Fold change /veh FAM167A (11723789_a_at) / RFU FAM26E (11764081_at) / Fold change /veh FAM26E (11764081_at) / RFU ISYNA1 (11749810_s_at) / Fold change /veh ISYNA1 (11749810_s_at) / RFU ACY1 (11761880_at) / Fold change /veh ACY1 (11761880_at) / RFU 11764098_at / Fold change /veh 11764098_at / RFU SAMD14 (11745864_x_at) / Fold change /veh SAMD14 (11745864_x_at) / RFU NPB (11741838_a_at) / Fold change /veh NPB (11741838_a_at) / RFU TMPRSS6 (11731388_a_at) / Fold change /veh TMPRSS6 (11731388_a_at) / RFU KRTAP10-2 (11738614_at) / Fold change /veh KRTAP10-2 (11738614_at) / RFU ARHGAP8 /// PRR5-ARHGAP8 (11727945_x_at) / Fold change /veh ARHGAP8 /// PRR5-ARHGAP8 (11727945_x_at) / RFU KRTAP5-7 /// NADSYN1 (11734609_at) / Fold change /veh KRTAP5-7 /// NADSYN1 (11734609_at) / RFU RASL12 (11751679_a_at) / Fold change /veh RASL12 (11751679_a_at) / RFU CDKN2B (11736163_a_at) / Fold change /veh CDKN2B (11736163_a_at) / RFU PRF1 (11729649_at) / Fold change /veh PRF1 (11729649_at) / RFU, ZNF638 /// ZNF638-IT1 / Fold change vs veh, ZNF638 /// ZNF638-IT1 / RFU, PANK3 / Fold change vs veh, PANK3 / RFU, SH3YL1 / Fold change vs veh, SH3YL1 / RFU, ZEB2 / Fold change vs veh, ZEB2 / RFU, NRIP1 / Fold change vs veh, NRIP1 / RFU, PTTG1IP / Fold change vs veh, PTTG1IP / RFU, CAPN2 / Fold change vs veh, CAPN2 / RFU, MED14 / Fold change vs veh, MED14 / RFU, SNORA58 / Fold change vs veh, SNORA58 / RFU, C1orf63 / Fold change vs veh, C1orf63 / RFU, LRRFIP1 / Fold change vs veh, LRRFIP1 / RFU, NDUFAF7 / Fold change vs veh, NDUFAF7 / RFU, SLC12A2 / Fold change vs veh, SLC12A2 / RFU, IBTK / Fold change vs veh, IBTK / RFU, ESF1 / Fold change vs veh, ESF1 / Fold change vs veh, TMEM50B / RFU, TAOK1 / Fold change vs veh, TAOK1 / RFU, ACBD3 / Fold change vs veh, ACBD3 / RFU, TMA16 / Fold change vs veh, TMA16 / RFU, RWDD3 / Fold change vs veh, RWDD3 / RFU, BCAT1 / Fold change vs veh, BCAT1 / RFU, EDEM3 / Fold change vs veh, EDEM3 / RFU, TMEM33 / Fold change vs veh, TMEM33 / RFU, WDR75 / Fold change vs veh, WDR75 / RFU, AHCTF1 / Fold change vs veh, AHCTF1 / RFU, TFRC / Fold change vs veh, TFRC / RFU, ZDHHC17 / Fold change vs veh, ZDHHC17 / RFU, NOM1 / Fold change vs veh, NOM1 / RFU, ARL8B / Fold change vs veh, ARL8B / RFU, ZBTB11 / Fold change vs veh, ZBTB11 / RFU, TAMM41 / Fold change vs veh, TAMM41 / RFU, KIAA1704 /// LOC100996395 / Fold change vs veh, KIAA1704 /// LOC100996395 / RFU, ING1 / Fold change vs veh, ING1 / RFU, TRMT61B / Fold change vs veh, TRMT61B / RFU, FUBP3 / Fold change vs veh, FUBP3 / RFU, TP53 / Fold change vs veh, TP53 / RFU, TNKS2 / Fold change vs veh, TNKS2 / RFU, ZFP14 / Fold change vs veh, ZFP14 / RFU, ACTR2 / Fold change vs veh, ACTR2 / RFU, PPP3R1 / Fold change vs veh, PPP3R1 / RFU, PIK3R1 / Fold change vs veh, PIK3R1 / RFU, HNRNPA1 / Fold change vs veh, HNRNPA1 / RFU, RNF170 / Fold change vs veh, RNF170 / RFU, ZNF28 / Fold change vs veh, ZNF28 / RFU, RNGTT / Fold change vs veh, RNGTT / RFU, OGT / Fold change vs veh, OGT / RFU, BRD1 / Fold change vs veh, BRD1 / RFU, MARS / Fold change vs veh, MARS / RFU, ZNF655 / Fold change vs veh, ZNF655 / RFU, FAHD1 / Fold change vs veh, FAHD1 / RFU, BDP1 / Fold change vs veh, BDP1 / RFU, LRRCC1 / Fold change vs veh, LRRCC1 / RFU, ARID1A / Fold change vs veh, ARID1A / RFU, ZNF146 / Fold change vs veh, ZNF146 / RFU, ZNF330 / Fold change vs veh, ZNF330 / RFU, GPN3 / Fold change vs veh, GPN3 / RFU, C9orf123 / Fold change vs veh, C9orf123 / RFU, N4BP2L2 / Fold change vs veh, N4BP2L2 / RFU, ARFIP1 / Fold change vs veh, ARFIP1 / RFU, FAM179B / Fold change vs veh, FAM179B / RFU, BCL10 / Fold change vs veh, BCL10 / RFU, UHRF1BP1L / Fold change vs veh, UHRF1BP1L / RFU, BET1 / Fold change vs veh, BET1 / RFU, CNOT2 / Fold change vs veh, CNOT2 / RFU, ZNF268 / Fold change vs veh, ZNF268 / Fold change vs veh, ZNF507 / RFU, DGCR2 / Fold change vs veh, DGCR2 / RFU, WDSUB1 / Fold change vs veh, WDSUB1 / Fold change vs veh, HSP90B1 /// MIR3652 / RFU, ADSS / Fold change vs veh, ADSS / RFU, GK / Fold change vs veh, GK / RFU, ZNF148 / Fold change vs veh, ZNF148 / RFU, TAF9 / Fold change vs veh, TAF9 / RFU, SLC1A5 / Fold change vs veh, SLC1A5 / RFU, SLMO2 / Fold change vs veh, SLMO2 / RFU, ABCC4 / Fold change vs veh, ABCC4 / RFU, LOC101060439 /// RAP1B / Fold change vs veh, LOC101060439 /// RAP1B / RFU, RFX7 / Fold change vs veh, RFX7 / RFU, GTPBP10 / Fold change vs veh, GTPBP10 / RFU, CNEP1R1 / Fold change vs veh, CNEP1R1 / RFU, BIVM-ERCC5 /// ERCC5 / Fold change vs veh, BIVM-ERCC5 /// ERCC5 / RFU, ILF3 / Fold change vs veh, ILF3 / RFU 11762660_at / Fold change /veh 11762660_at / RFU VCAN (11757783_s_at) / Fold change /veh VCAN (11757783_s_at) / RFU DDX43 (11728927_at) / Fold change /veh DDX43 (11728927_at) / RFU KRT8 (11758188_x_at) / Fold change /veh KRT8 (11758188_x_at) / RFU NKD1 (11759106_at) / Fold change /veh NKD1 (11759106_at) / RFU SRD5A1 (11742802_a_at) / Fold change /veh SRD5A1 (11742802_a_at) / RFU TPSAB1 /// TPSB2 (11721975_s_at) / Fold change /veh TPSAB1 /// TPSB2 (11721975_s_at) / RFU GSTM3 (11746129_a_at) / Fold change /veh GSTM3 (11746129_a_at) / RFU IL23R (11737362_x_at) / Fold change /veh IL23R (11737362_x_at) / RFU TMEM51 (11727254_a_at) / Fold change /veh TMEM51 (11727254_a_at) / RFU PIWIL2 (11732686_x_at) / Fold change /veh PIWIL2 (11732686_x_at) / RFU ORM1 (11744905_x_at) / Fold change /veh ORM1 (11744905_x_at) / RFU CCDC152 (11743942_at) / Fold change /veh CCDC152 (11743942_at) / RFU ECM1 (11717891_a_at) / Fold change /veh ECM1 (11717891_a_at) / RFU IL23R (11748794_a_at) / Fold change /veh IL23R (11748794_a_at) / RFU TNFAIP8L3 (11732012_x_at) / Fold change /veh TNFAIP8L3 (11732012_x_at) / RFU MBOAT4 (11741988_at) / Fold change /veh MBOAT4 (11741988_at) / RFU 11764193_at / Fold change /veh 11764193_at / RFU TMEM53 (11763286_at) / Fold change /veh TMEM53 (11763286_at) / RFU MAGEB2 (11727129_at) / Fold change /veh MAGEB2 (11727129_at) / RFU TMEM200A (11744735_a_at) / Fold change /veh TMEM200A (11744735_a_at) / RFU CCDC152 (11751479_a_at) / Fold change /veh CCDC152 (11751479_a_at) / RFU FAM211A (11726209_a_at) / Fold change /veh FAM211A (11726209_a_at) / RFU RGS16 (11746705_a_at) / Fold change /veh RGS16 (11746705_a_at) / RFU VCAN (11755009_s_at) / Fold change /veh VCAN (11755009_s_at) / RFU RHOB (11743442_s_at) / Fold change /veh RHOB (11743442_s_at) / RFU RGS16 (11720943_a_at) / Fold change /veh RGS16 (11720943_a_at) / RFU RGS16 (11720944_at) / Fold change /veh RGS16 (11720944_at) / RFU, VPS4B / Fold change vs veh, VPS4B / RFU, CREB1 / Fold change vs veh, CREB1 / RFU, DNAJC13 / Fold change vs veh, DNAJC13 / RFU, GNAQ / Fold change vs veh, GNAQ / RFU, CDK5R1 / Fold change vs veh, CDK5R1 / RFU, ZRANB3 / Fold change vs veh, ZRANB3 / RFU, CUL4A / Fold change vs veh, CUL4A / RFU, CCNY / Fold change vs veh, CCNY / RFU, UFL1 / Fold change vs veh, UFL1 / RFU, COG3 / Fold change vs veh, COG3 / RFU, DIAPH2 / Fold change vs veh, DIAPH2 / RFU, SKA2 / Fold change vs veh, SKA2 / RFU, AFF3 / Fold change vs veh, AFF3 / RFU, LMF1 / Fold change vs veh, LMF1 / RFU, IPO11 / Fold change vs veh, IPO11 / RFU, DFFB / Fold change vs veh, DFFB / RFU, FOXP1 / Fold change vs veh, FOXP1 / RFU, CARD8 / Fold change vs veh, CARD8 / RFU, STRN3 / Fold change vs veh, STRN3 / RFU, ADK / Fold change vs veh, ADK / RFU, RASSF2 / Fold change vs veh, RASSF2 / RFU, WIPF1 / Fold change vs veh, WIPF1 / RFU, LARP1B / Fold change vs veh, LARP1B / RFU, RASA1 / Fold change vs veh, RASA1 / RFU, RB1 / Fold change vs veh, RB1 / RFU, PPFIA1 / Fold change vs veh, PPFIA1 / RFU, MAT2A / Fold change vs veh, MAT2A / RFU, CCT5 / Fold change vs veh, CCT5 / RFU, WDR92 / Fold change vs veh, WDR92 / RFU, CUX1 / Fold change vs veh, CUX1 / RFU, TTC7A / Fold change vs veh, TTC7A / RFU, TMEM135 / Fold change vs veh, TMEM135 / RFU, DEPTOR / Fold change vs veh, DEPTOR / RFU, CPM / Fold change vs veh, CPM / RFU, DNAJB6 / Fold change vs veh, DNAJB6 / RFU, CACNA2D3 / Fold change vs veh, CACNA2D3 / RFU, DTX4 / Fold change vs veh, DTX4 / RFU, TFCP2 / Fold change vs veh, TFCP2 / RFU, GMCL1 /// GMCL1P1 / Fold change vs veh, GMCL1 /// GMCL1P1 / RFU, AEBP2 / Fold change vs veh, AEBP2 / RFU, SNHG1 /// SNORD22 /// SNORD25 /// SNORD26 /// SNORD27 /// SNORD28 /// SNORD29 /// SNORD31 / Fold change vs veh, SNHG1 /// SNORD22 /// SNORD25 /// SNORD26 /// SNORD27 /// SNORD28 /// SNORD29 /// SNORD31 / Fold change (Aza/veh), C12orf56 (ProbeSet 11735607_a_at) / Fold change (ACY-1035/veh), C12orf56 (ProbeSet 11735607_a_at) / Fold change (Aza/veh), FGFR1OP (ProbeSet 11751329_s_at) / Fold change (ACY-1035/veh), FGFR1OP (ProbeSet 11751329_s_at) / Fold change (Aza/veh), VPS36 (ProbeSet 11739960_a_at) / Fold change (ACY-1035/veh), VPS36 (ProbeSet 11739960_a_at) / RFU SYPL1 (11715823_x_at) / Fold change /veh SYPL1 (11715823_x_at) / RFU IGFBP7 (11715501_s_at) / Fold change /veh IGFBP7 (11715501_s_at) / RFU REEP3 (11722064_at) / Fold change /veh REEP3 (11722064_at) / RFU IGLL1 (11728026_x_at) / Fold change /veh IGLL1 (11728026_x_at): dose or concentration left out as unconfirmed
Settings: ProbeSet 11721521_at; LIST B

Nc1ncn([C@@H]2O[C@H](CO)[C@@H](O)[C@H]2O)c(=O)n1 [azacitidine]
RFU, ZDHHC17: 48.06 RFU
